Results reported in patent US8367659B2, “Oxazinyl isoflavonoid compounds, medicaments and use” (Marshall Edwards, Inc., priority 2007, dated 2013).
Marks after values point to notes of the source that are not given here.

How the values were obtained:
[1] = tested on: TXA2 synthesis in RA stimulated U937 cells; assay: TXA2 synthesis in RA-stimulated U937 cells; assay type: cell-based, human; conditions: for TXA2 / TXA2 (pg): A23187; for TXA2 (pg): test compound 100 μM
Protocol: U937 cells were thawed and resuspended in RPM1 and 10% FCS at 2×10^5 cells per ml. The cells were incubated in 5% CO2 at 37° C. and expanded in growing culture to at least 6.4×10^7 total cells. The cells were then resuspended in fresh medium and cultured with […] (RA) at 2×10^5 cells per ml for a further 3 days (72 h). RA treated cells were washed 2× in serum-free RPM and resuspended in serum-free medium at 5×10^6 cells per ml. The cells were aliquotted into Teflon tubes at 1 ml per tube. Working stock solutions of each test compound were prepared at 0.1 mM, 1 mM and 10 mM as described above. For each test compound at each working dilution, 10 μl was added to 1 ml cells to achieve a final concentration of 0 (DMSO alone), 1, 10, and 100 μM for each test compound. Cells were incubated in triplicate with each concentration of test compound for 15 min at 37° C. After 15 min pre-incubation, each 1 ml tube of cells received 5 μl of a […] solution of the calcium ionophore A23187 (to achieve 0.5 μM A23187). Incubation at 37° C. was continued for a further 30 min. After incubation, supernatants were collected by centrifugation at 2000 rpm for 10 min and stored at −20° C. until required for assay.

[2] = tested on: MDA-MB-468; assay: Anti-cancer activity, MDA-MB-468 breast cancer cells (MTT); assay type: cell-based; conditions: Homo sapiens, MDA-MB-468, 120 h, 5 days
[3] = tested on: E-selectin; assay: TNFα-induced E-selectin expression in human arterial endothelial cells (ELISA); assay type: cell-based
Protocol: (§1) Inhibition of TNFα-stimulated endothelial cell activation by compounds was assessed by measuring surface expression of cell adhesion molecules with an ELISA method. Human arterial endothelial cells (HAEC) in growth medium (Cell Applications Inc.) were seeded into 96-well plates at a density of 10,000 cells per well. Plates were incubated overnight at 37° C. in a humidified incubator to allow for cells to become confluent. On the morning of the experiment, TNFα (10 μl, 2 ng/ml) was added to each well, which contained 100 μl of medium. Compounds were diluted in DMSO-containing medium (2.5% DMSO) to give a compound concentration of 100 and 300 μM. Compounds were added to wells so that final concentrations were 10 and 30 μM. DMSO-containing medium alone was added to zero concentration control wells. All samples were measured in quadruplicate (4 wells per treatment).
(§2) After incubation with compound, medium was removed and cells were probed with either non-specific IgG or specific mouse antibodies against E-selectin, ICAM or VCAM (BD Biosciences—0.1 μg in 100 μL buffered saline with 10% heat-inactivated human serum). Adhesion molecule expression was detected by addition of sheep anti-mouse antibody/horseradish peroxidase conjugate. […] Optical density was measured at 405 nm with an ELISA reader (Titertek Multiscan, Flow Laboratories). […]

[4] = tested on: A10 smooth muscle cells; assay: Proliferation of A10 smooth muscle cells from the media of rat aorta; assay type: cell-based; conditions: A10, 72 h, three days, read-out: IC50, inhibition of proliferation in A10 cells
Protocol: The effect of test compounds on human umbilical vein smooth muscle cells (HUVSMC), was examined. Cells, tissue explants from a neonate (HRI—passage 2), were seeded into 96 well plates at 1×10^3 cells per well, and allowed to attach for 24 hours. They were then washed twice and incubated in medium without foetal calf serum (FCS) for 24-48 hours to serum-starve them. Test compounds were prepared in medium without FCS and added to the plates and incubated for one hour. Medium with FCS was added to give a final concentration of 10% and the plates incubated for 4-5 days until the controls were just confluent.
The effect of test compounds on rat aortic smooth muscle cell line (A7r5) and another cell line from the media of rat aorta (A10) was examined. The methodology was the same as for HUVSMC, except that the cells were treated with compound for three days.

[5] = tested on: cancer cell lines; assay: Anti-cancer activity, cancer cell lines tested as a group (MTT); assay type: cell-based; conditions: read-out: IC50 against all cancer cell lines tested
[6] = tested on: ICAM-1; assay: TNFα-induced ICAM-1 expression in human arterial endothelial cells (ELISA); assay type: cell-based
Protocol: as §1, §2

[7] = tested on: THP-1 cells; assay: Cell viability of THP-1 cells in the NFκB assay; assay type: cell-based, human; conditions: 50 μM and 100 μM
Protocol: In brief, genetically modified THP-1 cells were seeded into wells of a 96-well plate (50×10^3 cells/well) in the presence of RPMI 1640 medium (70 μl). TNFα was added to each well (10 μl) to give a final concentration of 7.5 ng/ml. Dialyzed bovine serum was added (10 μl). Compounds dissolved in DMSO (10 μL) were then added (5 wells for each compound). Each plate contained a no-cell control (4 wells), a no-serum control (4 wells) and two serum controls. Plates were incubated for 5 h at 37° C. to allow for NFκB-stimulated beta-lactamase production. LiveBLAzer™ FRET B/G Substrate (CCF4-AM) substrate was then added to assay. CCF4-AM is a Forster resonance energy transfer (FRET) based substrate for beta-lactamase developed by Invitrogen Corp. Once CCFA-AM enters a cell, it is converted to negatively charged CCF4 by endogenous esterases. Excitation of this substrate at 409 nm leads to efficient FRET between the coumarin and fluorescein moieties, resulting in a green fluorescence detectable at 530 nm. The presence of beta-lactamase leads to cleavage of CCF4 and results in a loss of FRET, resulting in a robust blue fluorescent signal detectable at 460 nm. Thus, activity of beta-lactamase (a marker of NFκB-promoter activity) is measured as a product to substrate ratio (blue/green fluorescence ratio: 460 nm/530 nm). […]

[8] = TNFα-stimulated HAEC, 4 hrs, FIG. 18
[9] = HAEC, 10 μM found most appropriate for comparing

| SMILES | TXA2 ([1]; test compound 1 μM) [pg] | TXA2 ([1]; test compound 10 μM) [pg] | TXA2 (pg) [1] | IC50 [2] [µM] | inhibition of E-selectin expression [3, 8] [%] | IC50 [4] [µM] | IC50 [5] [µM] | inhibition of ICAM expression [6, 8] | cell viability [7] | effect on TXA2 synthesis ([1]; 100 μM) | effect on TNFα-induced E-selectin expression [3, 9] | effect on TNFα-induced ICAM-1 expression [6, 9] |
| --- | --- | --- | --- | --- | --- | --- | --- | --- | --- | --- | --- | --- |
| Oc1ccc(C2=Cc3cc4c(cc3OC2)OCN(Cc2ccccc2)C4)cc1 [Compound 1, 4-(3-Benzyl-2,3,4,8-tetrahydrochromeno[6,7-e][1,3]oxazin-7-yl)phenol] | 48.720 ± 2.927 | 17.421 ± 5.747 | 6.397 ± 0.557^a pg | 5.25 ± 2.1 | > 50 | 11 | 5 to 20 | 10-50% | reduced cell viability | – | – | – |
| CC(c1ccccc1)N1COc2cc3c(cc2C1)C=C(c1ccc(O)cc1)CO3 (stereo not shown) [Compound 2, 4-(3-(1-Phenylethyl)-2,3,4,8-tetrahydrochromeno[6,7-e][1,3]oxazin-7-yl)phenol] | 30.680 ± 2.708 | 21.298 ± 0.914 | 2.313 ± 0.113^a pg | 4.87 ± 2.6 | – | – | 5 to 20 | – | reduced cell viability | inhibit TXA2 synthesis | – | – |
| Oc1cccc(C2=Cc3ccc(O)cc3OC2)c1 [Compound 37-DHE, 3′,7-dihydroxy-isoflav-3-ene, reference compound] | – | – | – | – | – | 31 | – | – | – | – | less pronounced | less pronounced |
